Test systems include A498 renal; SW-620 colon; SK-OV-3 ovarian; A549 NSCLC; IGROV1 ovarian; T-47D breast; DU-145 prostate; K-562 leukemia; UACC-257 melanoma; NCI-H522 lung; SNB-75 CNS; M14 melanoma; SK-MEL-5 melanoma; HCT-15 colon; BT-549 breast; MALME-3M melanoma; MDA-N; UO-31 renal; PC-3 prostate; OVCAR-4 ovarian.
What all share (test): NCI tumour cell line growth inhibition, 48 h

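48-hour exposure; five concentrations; linearly interpolated endpoints. TGI: total growth inhibition.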 Where a SMILES comes first, the peptide text is derived from it. [ ]: non-standard residue; d: D form. The star is where a group is joined. X28 = COC1=CC(=O)N(C(=O)[C@@H](O*)C(C)C)[C@H]1Cc1ccccc1; NMeV = CN[C@H](C(=O)O)C(C)C; Hexanoyl = CCCCCC(=O)*

Consider `S=c1sc2c(s1)SCCCCSCCCCSc1sc(=S)sc1SCCCCSCCCCS2`, for which the TGI in the experiment with A498 renal, with SW-620 colon, in the experiment with SK-OV-3 ovarian, in the experiment on A549 NSCLC, in the experiment with IGROV1 ovarian and with T-47D breast was greater than 100 µM each time. Moreover, the TGI in the experiment with DU-145 prostate is greater than 100 µM; in the experiment with K-562 leukemia, greater than 100 µM; in the experiment with UACC-257 melanoma it was greater than 100 µM; in the experiment with NCI-H522 lung, greater than 100 µM; with SNB-75 CNS, 59.2 µM; in the experiment with M14 melanoma it was greater than 100 µM. Also, the TGI in the experiment with SK-MEL-5 melanoma, with HCT-15 colon, with BT-549 breast, in the experiment on MALME-3M melanoma, with MDA-N and with UO-31 renal was greater than 100 µM each time. Also, the TGI with PC-3 prostate was greater than 100 µM.

In the case of `CC(=O)N1C(=O)/C(=C\C(=O)c2ccc([N+](=O)[O-])cc2)c2ccccc21`, the TGI with A498 renal is greater than 100 µM; in the experiment with OVCAR-4 ovarian it was 34.5 µM; in the experiment with SK-OV-3 ovarian, greater than 100 µM; in the experiment with A549 NSCLC it was greater than 100 µM; in the experiment with IGROV1 ovarian, 53.9 µM; with T-47D breast, 61.9 µM. For the same compound, the TGI with DU-145 prostate was greater than 100 µM; in the experiment with K-562 leukemia, 36.5 µM; with UACC-257 melanoma it was 40.9 µM; in the experiment on NCI-H522 lung it was 30.9 µM; in the experiment on SNB-75 CNS it was 49.6 µM; with M14 melanoma, greater than 100 µM. Moreover, the TGI in the experiment on SK-MEL-5 melanoma is greater than 100 µM; in the experiment with HCT-15 colon, 32.1 µM; in the experiment with BT-549 breast, 42.1 µM; with MALME-3M melanoma it was 45.9 µM; in the experiment on MDA-N, 49.2 µM; in the experiment with UO-31 renal, 63 µM. Besides, the TGI with PC-3 prostate was determined as 58.4 µM.

Take `CCN(CC)CCC(=O)c1ccc(Oc2ccc(Cl)cc2)cc1`: the TGI with A498 renal is 31.7 µM; with SW-620 colon, 44.4 µM; in the experiment on OVCAR-4 ovarian, 36.1 µM; in the experiment with A549 NSCLC, greater than 100 µM; in the experiment on IGROV1 ovarian, 41.8 µM; with T-47D breast it was 44.3 µM. Also, the TGI in the experiment on DU-145 prostate is 47.8 µM; with K-562 leukemia it was greater than 100 µM; in the experiment on UACC-257 melanoma, 28.6 µM; in the experiment on NCI-H522 lung, 38 µM; in the experiment with SNB-75 CNS it was 25.5 µM; with M14 melanoma, 28.3 µM. Also, the TGI came to 31.2 µM in the experiment with SK-MEL-5 melanoma; 38.8 µM in the experiment on HCT-15 colon; 32.6 µM in the experiment with BT-549 breast; 34.8 µM in the experiment with MALME-3M melanoma; 29.6 µM with MDA-N; 32.4 µM in the experiment with UO-31 renal. The compound also yielded a TGI in the experiment with PC-3 prostate of 28.3 µM.

Take `C=CCOc1ccc(/C(N=Nc2ccc(Cl)cc2)=N/NC(=O)c2ccccc2)cc1OC`: the TGI in the experiment on A498 renal is greater than 100 µM; in the experiment on SW-620 colon it was greater than 100 µM; in the experiment with OVCAR-4 ovarian, greater than 100 µM; in the experiment with A549 NSCLC, greater than 100 µM; with IGROV1 ovarian it was greater than 100 µM; with T-47D breast it was 61.6 µM. Also, the TGI in the experiment on DU-145 prostate, with UACC-257 melanoma, in the experiment on NCI-H522 lung, with SNB-75 CNS, in the experiment on M14 melanoma and with SK-MEL-5 melanoma was greater than 100 µM in each case. In addition, the TGI is greater than 100 µM in the experiment with HCT-15 colon; 70.3 µM in the experiment with BT-549 breast; greater than 100 µM with MALME-3M melanoma; greater than 100 µM in the experiment on MDA-N; greater than 100 µM in the experiment on UO-31 renal; greater than 100 µM in the experiment with PC-3 prostate.

As for `CCC1NC(=O)C1NC(=O)OC` (stereo not given), the TGI with A498 renal, in the experiment on SW-620 colon, in the experiment with OVCAR-4 ovarian, in the experiment with SK-OV-3 ovarian, with IGROV1 ovarian and in the experiment with T-47D breast was greater than 100 µM in each case. Moreover, the TGI with DU-145 prostate, in the experiment on K-562 leukemia, in the experiment on UACC-257 melanoma, in the experiment with NCI-H522 lung, with SNB-75 CNS and with M14 melanoma was greater than 100 µM throughout. Further, the TGI with SK-MEL-5 melanoma, in the experiment on HCT-15 colon, in the experiment on BT-549 breast, in the experiment with MALME-3M melanoma, in the experiment on MDA-N and in the experiment with UO-31 renal was greater than 100 µM throughout. For the same compound, the TGI with PC-3 prostate is greater than 100 µM.

Consider `COc1cccc(-c2c(C#N)c(N)nc3c2CCS(=O)(=O)c2ccc(C)cc2-3)c1`, for which the TGI in the experiment with A498 renal, with SW-620 colon, with OVCAR-4 ovarian, in the experiment with A549 NSCLC, in the experiment on IGROV1 ovarian and in the experiment on T-47D breast was greater than 100 µM throughout. Also, the TGI with DU-145 prostate, with K-562 leukemia, in the experiment on UACC-257 melanoma, in the experiment with NCI-H522 lung, in the experiment on SNB-75 CNS and in the experiment on M14 melanoma was greater than 100 µM each time. In addition, the TGI in the experiment with SK-MEL-5 melanoma, in the experiment with HCT-15 colon, in the experiment on BT-549 breast, in the experiment on MALME-3M melanoma, in the experiment on MDA-N and in the experiment on UO-31 renal was greater than 100 µM throughout. The compound also had a TGI with PC-3 prostate greater than 100 µM.

In the case of `CCCCCC(=O)N[C@H](C(=O)N[C@H](C(=O)N(C)[C@H](C(=O)N1CCC[C@H]1C(=O)N1CCC[C@H]1C(=O)O[C@H](C(=O)N1C(=O)C=C(OC)[C@@H]1Cc1ccccc1)C(C)C)C(C)C)C(C)C)C(C)C` (Hexanoyl-VV[NMeV]PP-X28), the TGI with A498 renal, in the experiment with SW-620 colon, with OVCAR-4 ovarian, with SK-OV-3 ovarian, in the experiment on IGROV1 ovarian and in the experiment with T-47D breast was greater than 100 µM each time. Further, the TGI is greater than 100 µM with DU-145 prostate; greater than 100 µM in the experiment with K-562 leukemia; greater than 100 µM with UACC-257 melanoma; greater than 100 µM in the experiment on NCI-H522 lung; 38.5 µM in the experiment on SNB-75 CNS; greater than 100 µM with HCT-15 colon. Further, the TGI in the experiment with BT-549 breast is greater than 100 µM; with MALME-3M melanoma, greater than 100 µM; in the experiment on MDA-N, greater than 100 µM; in the experiment with UO-31 renal, greater than 100 µM; in the experiment on PC-3 prostate it was 85.5 µM.

For the origin of these results see PubChem BioAssay (NCI).
